From patent US8436178B2, “Imidazoquinolines with immuno-modulating properties” (AstraZeneca AB, priority 2007, dated 2013)
Structures can show the parent of a compound that is named as a salt.

Target: T1, human TLR7 (Homo sapiens, UniProt Q9NYK1)
T1 construct: expressed in transfected cells; host or cells: HEK293 cell line stably expressing the pNiFty2-SEAP reporter plasmid; TLR7 in pUNO vector, blasticidin selection
T1 sequence (Q9NYK1 27-1049): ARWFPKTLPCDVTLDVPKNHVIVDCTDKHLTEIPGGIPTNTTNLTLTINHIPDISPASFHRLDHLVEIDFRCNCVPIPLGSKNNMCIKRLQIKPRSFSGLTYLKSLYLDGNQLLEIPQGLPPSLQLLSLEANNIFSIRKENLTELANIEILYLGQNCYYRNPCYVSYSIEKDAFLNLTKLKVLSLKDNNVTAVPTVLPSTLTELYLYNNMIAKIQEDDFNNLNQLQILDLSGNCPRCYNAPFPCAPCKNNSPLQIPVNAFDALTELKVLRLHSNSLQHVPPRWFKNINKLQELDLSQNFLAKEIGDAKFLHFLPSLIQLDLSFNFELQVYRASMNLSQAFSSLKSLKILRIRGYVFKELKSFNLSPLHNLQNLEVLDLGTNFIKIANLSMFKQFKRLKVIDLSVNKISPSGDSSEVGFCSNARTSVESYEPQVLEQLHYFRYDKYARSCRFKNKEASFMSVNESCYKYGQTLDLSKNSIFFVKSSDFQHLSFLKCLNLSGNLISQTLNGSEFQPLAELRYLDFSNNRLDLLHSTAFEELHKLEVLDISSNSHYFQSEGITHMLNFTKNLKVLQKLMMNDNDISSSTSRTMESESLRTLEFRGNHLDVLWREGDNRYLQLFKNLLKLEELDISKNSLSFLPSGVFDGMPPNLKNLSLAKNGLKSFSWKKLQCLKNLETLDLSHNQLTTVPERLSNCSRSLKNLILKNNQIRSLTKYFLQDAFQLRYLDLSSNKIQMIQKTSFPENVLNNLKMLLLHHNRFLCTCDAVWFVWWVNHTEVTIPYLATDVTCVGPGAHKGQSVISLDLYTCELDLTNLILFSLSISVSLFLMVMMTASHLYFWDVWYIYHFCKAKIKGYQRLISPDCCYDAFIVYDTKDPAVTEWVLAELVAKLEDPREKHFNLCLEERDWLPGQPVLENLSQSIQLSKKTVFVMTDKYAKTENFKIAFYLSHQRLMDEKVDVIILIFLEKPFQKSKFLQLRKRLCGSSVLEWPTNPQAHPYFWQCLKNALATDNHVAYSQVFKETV
Assay: Human TLR7 assay (SEAP reporter in HEK293 cells)
Type: cell-based
Settings: SEAP induction in HEK293 cells expressing human TLR7, overnight incubation at 37° C., 0.1% DMSO
From the text: The most common variant sequence of human TLR7 (represented by the EMBL sequence AF240467) was cloned into the mammalian cell expression vector pUNO and transfected into a HEK293 cell line already stably expressing the pNiFty2-SEAP reporter plasmid; integration of the reporter gene was maintained by selection with the antibiotic zeocin. Transfectants with stable TLR7 expression were selected using the antibiotic blasticidin. In this reporter cell-line, expression of secreted alkaline phosphatase (SEAP) is controlled by an NFkB/ELAM-1 composite promoter comprising five NFkB sites combined with the proximal ELAM-1 promoter. TLR signaling leads to the translocation of NFkB and activation of the promoter results in expression of the SEAP gene. TLR7-specific activation was assessed by determining the level of SEAP produced following overnight incubation of the cells at 37° C. with the standard compound in the presence of 0.1% (v/v) dimethylsulfoxide (DMSO). Concentration dependent induction of SEAP production by compounds was expressed as the concentration of compound which produced half of the maximal level of SEAP induction for that compound (pEC50).

| Compound | EC50 [nM] |
| --- | --- |
| CCCCc1nc2c(N)nc3ccccc3c2n1CCCN(Cc1cccc(CC(=O)OC)c1)C(=O)CN1CCN(C)CC1 [Example 55, Methyl 2-(3-((N-(3-(4-amino-2-butyl-1H-imidazo[4,5-c]quinolin-1-yl)propyl)-2-(4-methylpiperazin-1-yl)acetamido)methyl)phenyl)acetate] | 79.4 |
| CCCCc1nc2c(N)nc3ccccc3c2n1CCCN(Cc1ccc(CC(=O)OC)cc1)C(=O)CN1CCCN(S(C)(=O)=O)CC1 [Example 68, Methyl 2-(4-((N-(3-(4-amino-2-butyl-1H-imidazo[4,5-c]quinolin-1-yl)propyl)-2-(4-(methylsulfonyl)-1,4-diazepan-1-yl)acetamido)methyl)phenyl)acetate] | 501 |
| CCCCc1nc2c(N)nc3ccccc3c2n1CCCN(Cc1cccc(CC(=O)OC)c1)C(=O)CN1CCN(CCO)CC1 [Example 56, Methyl 2-(3-((N-(3-(4-amino-2-butyl-1H-imidazo[4,5-c]quinolin-1-yl)propyl)-2-(4-(2-hydroxyethyl)piperazin-1-yl)acetamido)methyl)phenyl)acetate] | 501 |
| CCCCc1nc2c(N)nc3ccccc3c2n1CCCN(CCCN(C)C)Cc1cccc(CC(=O)OC)c1 [Example 11, Methyl 2-(3-(((3-(4-amino-2-butyl-1H-imidazo[4,5-c]quinolin-1-yl)propyl)(3-(dimethylamino)propyl)amino)methyl)phenyl)acetate] | 251 |
| CCCCc1nc2c(N)nc3ccccc3c2n1CCCN(Cc1cccc(CC(=O)OC)c1)C(=O)CN1CCCN(S(C)(=O)=O)CC1 [Example 65, Methyl 2-(3-((N-(3-(4-amino-2-butyl-1H-imidazo[4,5-c]quinolin-1-yl)propyl)-2-(4-(methylsulfonyl)-1,4-diazepan-1-yl)acetamido)methyl)phenyl)acetate] | 631 |
| CCCCc1nc2c(N)nc3ccccc3c2n1CCCN(Cc1cccc(CC(=O)OC)c1)C(=O)CN1CCC1 [Example 44, Methyl 2-(3-((N-(3-(4-amino-2-butyl-1H-imidazo[4,5-c]quinolin-1-yl)propyl)-2-(azetidin-1-yl)acetamido)methyl)phenyl)acetate] | 251 |
| CCCCc1nc2c(N)nc3ccccc3c2n1CCCN(Cc1ccc(CC(=O)OC)cc1)C(=O)CN1CCC(CC(=O)OCC)CC1 [Example 27, Ethyl 2-(1-(2-((3-(4-amino-2-butyl-1H-imidazo[4,5-c]quinolin-1-yl)propyl)(4-(2-methoxy-2-oxoethyl)benzyl)amino)-2-oxoethyl)piperidin-4-yl)acetate] | 39.8 |
| CCCCc1nc2c(N)nc3ccccc3c2n1CCCNCc1ccc(CC(=O)OC)cc1 [Example 1, Methyl 2-(4-((3-(4-amino-2-butyl-1H-imidazo[4,5-c]quinolin-1-yl)propylamino)methyl)phenyl)acetate] | 316 |
| CCCCc1nc2c(N)nc3ccccc3c2n1CCCN(Cc1cccc(CC(=O)OC)c1)C(=O)CN(CCC)CCC [Example 41] | 79.4 |
| COCCc1nc2c(N)nc3ccccc3c2n1CCCN(Cc1ccc(CC(=O)OC)cc1)C(=O)CN(C)CCO [Example 38, Methyl 2-(4-((N-(3-(4-amino-2-(2-methoxyethyl)-1H-imidazo[4,5-c]quinolin-1-yl)propyl)-2-((2-hydroxyethyl)(methyl)amino)acetamido)methyl)phenyl)acetate disaccharin salt] | 1580 |
| CCCCc1nc2c(N)nc3ccccc3c2n1CCCN(Cc1ccc(CC(=O)OC)cc1)C(=O)CN1CCN(C(C)=O)CC1 [Example 19, Methyl 2-(4-((2-(4-acetylpiperazin-1-yl)-N-(3-(4-amino-2-butyl-1H-imidazo[4,5-c]quinolin-1-yl)propyl)acetamido)methyl)phenyl)acetate] | 251 |
| COCCc1nc2c(N)nc3ccccc3c2n1CCCN(Cc1ccc(CC(=O)OC)cc1)C(=O)CCN1CCCCC1 [Example 33, Methyl 2-(4-((N-(3-(4-amino-2-(2-methoxyethyl)-1H-imidazo[4,5-c]quinolin-1-yl)propyl)-3-(piperidin-1-yl)propanamido)methyl)phenyl)acetate] | 158 |
| COCCc1nc2c(N)nc3ccccc3c2n1CCCN(CCCN1CCOCC1)Cc1ccc(CC(=O)OC)cc1 [Example 34, Methyl 2-(4-(((3-(4-amino-2-(2-methoxyethyl)-1H-imidazo[4,5-c]quinolin-1-yl)propyl)(3-morpholinopropyl)amino)methyl)phenyl)acetate] | 316 |
| CCCCc1nc2c(N)nc3ccccc3c2n1CCCN(Cc1cccc(CC(=O)OC)c1)C(=O)CN(CCO)CCO [Example 42, Methyl 2-(3-((N-(3-(4-amino-2-butyl-1H-imidazo[4,5-c]quinolin-1-yl)propyl)-2-(bis(2-hydroxyethyl)amino)acetamido)methyl)phenyl)acetate] | 1580 |
| CCCCc1nc2c(N)nc3ccccc3c2n1CCCN(Cc1ccc(CC(=O)OC)cc1)C(=O)CN1CCCN(C(C)=O)CC1 [Example 67, Methyl 2-(4-((2-(4-acetyl-1,4-diazepan-1-yl)-N-(3-(4-amino-2-butyl-1H-imidazo[4,5-c]quinolin-1-yl)propyl)acetamido)methyl)phenyl)acetate] | 501 |
| CCCCc1nc2c(N)nc3ccccc3c2n1CCCN(Cc1cccc(CC(=O)OC)c1)C(=O)CN1CCN(C(C)=O)CC1 [Example 58, Methyl 2-(3-((2-(4-acetylpiperazin-1-yl)-N-(3-(4-amino-2-butyl-1H-imidazo[4,5-c]quinolin-1-yl)propyl)acetamido)methyl)phenyl)acetate] | 1260 |
| CCCCc1nc2c(N)nc3ccccc3c2n1CCCN(CCN(C)C)Cc1ccc(CC(=O)OC)cc1 [Example 6, Methyl[4-({[3-(4-amino-2-butyl-1H-imidazo[4,5-c]quinolin-1-yl)propyl][2-(dimethylamino)ethyl]amino}methyl)phenyl]acetate] | 251 |
| CCCCc1nc2c(N)nc3ccccc3c2n1CCCN(Cc1cccc(CC(=O)OC)c1)C(=O)CN1CCC(O)C1 (stereo not shown) [Example 47, Methyl 2-(3-((N-(3-(4-amino-2-butyl-1H-imidazo[4,5-c]quinolin-1-yl)propyl)-2-(3-hydroxypyrrolidin-1-yl)acetamido)methyl)phenyl)acetate] | 398 |
| CCCCc1nc2c(N)nc3ccccc3c2n1CCCN(Cc1cccc(CC(=O)OC)c1)C(=O)CN1CCCC1 [Example 46, Methyl 2-(3-((N-(3-(4-amino-2-butyl-1H-imidazo[4,5-c]quinolin-1-yl)propyl)-2-(pyrrolidin-1-yl)acetamido)methyl)phenyl)acetate] | 63.1 |
| CCCCc1nc2c(N)nc3ccccc3c2n1CCCN(Cc1cccc(CC(=O)OC)c1)C(=O)CN1CCCOCC1 [Example 61, Methyl 2-(3-((N-(3-(4-amino-2-butyl-1H-imidazo[4,5-c]quinolin-1-yl)propyl)-2-(1,4-oxazepan-4-yl)acetamido)methyl)phenyl)acetate] | 398 |
| CCOCc1nc2c(N)nc3ccccc3c2n1CC1CCN(Cc2cccc(CC(=O)OC)c2)CC1 [Example 5, di-trifluoroacetate salt] | 316 |
| CCCCc1nc2c(N)nc3ccccc3c2n1CCCN(Cc1cccc(CC(=O)OC)c1)C1CCN(C)CC1 [Example 8, Methyl 2-(3-(((3-(4-amino-2-butyl-1H-imidazo[4,5-c]quinolin-1-yl)propyl)(1-methylpiperidin-4-yl)amino)methyl)phenyl)acetate] | 316 |
| COCCc1nc2c(N)nc3ccccc3c2n1CCCN(Cc1cccc(CC(=O)OC)c1)C(=O)CN1CCCCC1 [Example 31, Methyl 2-(3-((N-(3-(4-amino-2-(2-methoxyethyl)-1H-imidazo[4,5-c]quinolin-1-yl)propyl)-2-(piperidin-1-yl)acetamido)methyl)phenyl)acetate saccharin salt] | 158 |
| CCCCc1nc2c(N)nc3ccccc3c2n1CCCN(Cc1cccc(CC(=O)OC)c1)C(=O)CN1CCN(CCOC)CC1 [Example 57, Methyl 2-(3-((N-(3-(4-amino-2-butyl-1H-imidazo[4,5-c]quinolin-1-yl)propyl)-2-(4-(2-methoxyethyl)piperazin-1-yl)acetamido)methyl)phenyl)acetate] | 50.1 |
| CCCCc1nc2c(N)nc3ccccc3c2n1CCCN(Cc1ccc(CC(=O)OC)cc1)C(=O)CN1CC[C@@H](O)C1 [Example 20, (R)-Methyl 2-(4-((N-(3-(4-amino-2-butyl-1H-imidazo[4,5-c]quinolin-1-yl)propyl)-2-(3-hydroxypyrrolidin-1-yl)acetamido)methyl)phenyl)acetate] | 251 |
